# Experiments:
# [1] = system: Alopecurus myosuroides (ALOMY); assay: Post-emergence glasshouse herbicide test; assay type: in vivo; details: post-emergence (sprayed after 8 days cultivation), 1000 g/h, evaluated after 13 days, five point scale
# How it was run: (§1)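 Damage was rated 13 days after treatment on a five-point scale (1 = 0–19%, 5 = 80–100%). The compound, formulated in 50:50 acetone/water with 0.5% Tween 20, was sprayed at 1000 g/h on pots one day (pre) or 8 days (post) after sowing, kept in a glasshouse at 24/16° C, 14 h light, 65% humidity.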
# [2] = system: Amaranthus retoflexus (AMARE); assay: Post-emergence glasshouse herbicide test; assay type: in vivo; details: post-emergence (sprayed after 8 days cultivation), 1000 g/h, evaluated after 13 days, five point scale
# How it was run: as §1
# [3] = system: Echinochloa crus-galli (ECHCG); assay: Post-emergence glasshouse herbicide test; assay type: in vivo; details: post-emergence (sprayed after 8 days cultivation), 1000 g/h, evaluated after 13 days, five point scale
# How it was run: as §1
# [4] = system: Ipomoea hederacea (IPOHE); assay: Post-emergence glasshouse herbicide test; assay type: in vivo; details: post-emergence (sprayed after 8 days cultivation), 1000 g/h, evaluated after 13 days, five point scale
# How it was run: as §1
# [5] = system: Setaria faberi (SETFA); assay: Post-emergence glasshouse herbicide test; assay type: in vivo; details: post-emergence (sprayed after 8 days cultivation), 1000 g/h, evaluated after 13 days, five point scale
# How it was run: as §1
# [6] = system: Solanum nigrum (SOLNI); assay: Post-emergence glasshouse herbicide test; assay type: in vivo; details: post-emergence (sprayed after 8 days cultivation), 1000 g/h, evaluated after 13 days, five point scale
# How it was run: as §1
# [7] = system: Alopecurus myosuroides (ALOMY); assay: Pre-emergence glasshouse herbicide test; assay type: in vivo; details: pre-emergence (sprayed after one day cultivation), 1000 g/h, evaluated after 13 days, five point scale
# How it was run: as §1
# [8] = system: Amaranthus retoflexus (AMARE); assay: Pre-emergence glasshouse herbicide test; assay type: in vivo; details: pre-emergence (sprayed after one day cultivation), 1000 g/h, evaluated after 13 days, five point scale
# How it was run: as §1
# [9] = system: Echinochloa crus-galli (ECHCG); assay: Pre-emergence glasshouse herbicide test; assay type: in vivo; details: pre-emergence (sprayed after one day cultivation), 1000 g/h, evaluated after 13 days, five point scale
# How it was run: as §1
# [10] = system: Ipomoea hederacea (IPOHE); assay: Pre-emergence glasshouse herbicide test; assay type: in vivo; details: pre-emergence (sprayed after one day cultivation), 1000 g/h, evaluated after 13 days, five point scale
# How it was run: as §1
# [11] = system: Setaria faberi (SETFA); assay: Pre-emergence glasshouse herbicide test; assay type: in vivo; details: pre-emergence (sprayed after one day cultivation), 1000 g/h, evaluated after 13 days, five point scale
# How it was run: as §1
# [12] = system: Solanum nigrum (SOLNI); assay: Pre-emergence glasshouse herbicide test; assay type: in vivo; details: pre-emergence (sprayed after one day cultivation), 1000 g/h, evaluated after 13 days, five point scale
# How it was run: as §1
SMILES,"percentage damage caused to the plant, POST Application ALOMY [1]","percentage damage caused to the plant, POST Application AMARE [2]","percentage damage caused to the plant, POST Application ECHCG [3]","percentage damage caused to the plant, POST Application IPOHE [4]","percentage damage caused to the plant, POST Application SETFA [5]","percentage damage caused to the plant, POST Application SOLNI [6]","percentage damage caused to the plant, PRE Application ALOMY [7]","percentage damage caused to the plant, PRE Application AMARE [8]","percentage damage caused to the plant, PRE Application ECHCG [9]","percentage damage caused to the plant, PRE Application IPOHE [10]","percentage damage caused to the plant, PRE Application SETFA [11]","percentage damage caused to the plant, PRE Application SOLNI [12]",melting point [°C]
"C=C(C)C1C=NN(c2ccc(C(F)(F)F)cc2S(C)(=O)=O)C(=O)C1=O (stereo not shown) [Compound 1.039, 4-Isopropenyl-1-[2-methylsulfonyl-4-(trifluoromethyl)phenyl]-4H-pyridazine-5,6-dione]",5 (5=80-100%),5 (5=80-100%),5 (5=80-100%),5 (5=80-100%),5 (5=80-100%),5 (5=80-100%),5 (5=80-100%),5 (5=80-100%),5 (5=80-100%),5 (5=80-100%),5 (5=80-100%),5 (5=80-100%),144 to 147
CC(=O)NC(C)(C)Cc1cnn(-c2ccc(C(F)(F)F)cc2S(C)(=O)=O)c(=O)c1O [Compound 1.044],1 (1=0-19%),5 (5=80-100%),5 (5=80-100%),4 (4=60-79%),2 (2=20-39%),4 (4=60-79%),1 (1=0-19%),5 (5=80-100%),5 (5=80-100%),4 (4=60-79%),2 (2=20-39%),4 (4=60-79%),–
CCc1cnn(-c2ccc(C(F)(F)F)cc2S(C)(=O)=O)c(=O)c1O [Compound 1.045],5 (5=80-100%),5 (5=80-100%),5 (5=80-100%),5 (5=80-100%),5 (5=80-100%),5 (5=80-100%),5 (5=80-100%),5 (5=80-100%),5 (5=80-100%),5 (5=80-100%),5 (5=80-100%),5 (5=80-100%),–
CS(=O)(=O)c1cc(Cl)ccc1-n1ncc(S(C)(=O)=O)c(O)c1=O [Compound 1.047],1 (1=0-19%),2 (2=20-39%),1 (1=0-19%),2 (2=20-39%),1 (1=0-19%),2 (2=20-39%),1 (1=0-19%),2 (2=20-39%),1 (1=0-19%),2 (2=20-39%),1 (1=0-19%),2 (2=20-39%),–
CSc1cnn(-c2ccc(Cl)cc2S(C)(=O)=O)c(=O)c1O [Compound 1.048],1 (1=0-19%),4 (4=60-79%),3 (3=40-59%),3 (3=40-59%),2 (2=20-39%),4 (4=60-79%),1 (1=0-19%),4 (4=60-79%),3 (3=40-59%),3 (3=40-59%),2 (2=20-39%),4 (4=60-79%),–
C=Cc1cnn(-c2ccc(C(F)(F)F)cc2S(C)(=O)=O)c(=O)c1O [Compound 1.053],4 (4=60-79%),5 (5=80-100%),5 (5=80-100%),5 (5=80-100%),5 (5=80-100%),5 (5=80-100%),4 (4=60-79%),5 (5=80-100%),5 (5=80-100%),5 (5=80-100%),5 (5=80-100%),5 (5=80-100%),–

# — patent publication US20140323300A1, “HERBICIDAL COMPOUNDS” (SYNGENTA LIMITED, priority 2011, published 2014)
